Assay results reported in ChEMBL document CHEMBL1862790, “Optimisation of fenarimol series for the treatment of Chagas disease”.

How the values were obtained:
[1] = DNDI: Cytotoxicity against L-6 rat myoblasts from skeletal muscle cells; conditions: L6 rat skeletal muscle myoblast cells
Trypanosoma cruzi [2] = experiment: microbe, parasite or virus in culture; assay type: functional, Tulahuen LacZ, Clone C4; conditions: Trypanosoma cruzi, Tulahuen LacZ, Clone C4
Trypanosoma cruzi [3] = experiment: microbe, parasite or virus in culture; assay type: functional, organism-based, Tulahuen LacZ, Clone C4; conditions: Trypanosoma cruzi, Tulahuen LacZ, Clone C4

SMILES | IC90 (Trypanosoma cruzi [2]) [µM] | IC50 (Trypanosoma cruzi [3]) [µM] | IC50 ([1]; IC50) [µM] | IC50 [1] [µM]
Cc1ccccc1C(O)(c1ccc(Cl)cc1)c1cccnc1 (centres undefined) | 2.78 | 0.37 | – | 62
OC(c1ccc(C(F)(F)F)cc1)(c1cncnc1)c1ccccc1Cl (centres undefined) | 20 | 0.25 | > 100 | –
OC(c1ccc(C(F)(F)F)cc1)(c1ccc(C(F)(F)F)cc1)c1cc2ccccc2[nH]1 | 7.59 | 3.98 | 11.6 | –
OC(c1cccnc1)(c1cccs1)c1ccccc1Cl (centres undefined) | 0.67 | 0.345 | > 100 | –
OC(c1ccc(Cl)cc1)(c1ccncn1)c1ccccc1Cl (centres undefined) | 8.57 | 7.05 | – | > 100
OC(c1cccnc1)(c1cccc(C(F)(F)F)c1)c1ccccc1Cl (centres undefined) | 0.749 | 0.446 | – | 58
O=C(c1ccc(F)cc1)c1ccc(Cl)cc1 | 10 | > 10 | > 100 | –
Cn1cccc1C(O)(c1ccc(Cl)cc1)c1ccc(Cl)cc1 | > 10 | > 10 | 55.8 | –
CON=C(Cc1ccccc1)c1cccnc1 | > 1 | > 1 | > 100 | –
CC(C)CNC(c1ccc(Cl)cc1)c1cccnc1 (centres undefined) | 0.43 | 0.2 | > 100 | –
Cc1ccsc1C(O)(c1ccc(Cl)cc1)c1ccc(Cl)cc1 | > 10 | > 10 | 58.8 | –
OC(c1ccc(Cl)cc1)(c1ccc(Cl)cc1)c1cc(-c2ccccc2)on1 | > 10 | > 10 | 53.6 | –
CC(C)CC(O)(c1ccc(Cl)cc1)c1cnccn1 (centres undefined) | 0.337 | 0.139 | > 100 | –
OC(c1ccc(Cl)cc1)(c1cccnc1)c1c(F)cccc1Cl (centres undefined) | 0.469 | 0.172 | – | 66.9
OC(c1ccc(Cl)cc1)(c1cncnc1)c1ccccc1F (centres undefined) | 0.82 | 0.14 | > 100 | –
CON=C(C)c1cccnc1 | > 10 | > 10 | – | > 100
OC(c1ccc(Cl)cc1)(c1cccnc1)c1ccc(Cl)cc1Cl (centres undefined) | 0.0522 | 0.015 | – | 53.1
OC(c1cccnc1)(c1cncnc1)c1ccccc1Cl (centres undefined) | 10 | 7.82 | > 100 | –
CCCCOC(c1ccc(Cl)cc1)c1cccnc1 (centres undefined) | 0.296 | 0.124 | 62.6 | –
OC(c1ccc(Cl)cc1)(c1ccc(Cl)cc1)c1ccco1 | > 10 | > 10 | 48 | –
CCCCC(O)(c1ccc(Cl)cc1)c1cncnc1 (centres undefined) | 1.89 | 0.5 | > 100 | –
Cc1ccc(C(O)(c2ccc(Cl)cc2)c2cccnc2)s1 (centres undefined) | 0.067 | 0.024 | > 100 | –
N#Cc1cccc(C(O)(c2ccc(Cl)cc2)c2cccnc2)c1 (centres undefined) | 0.51 | 0.11 | > 100 | –

Now from value to compound, other results behind:

IC90 (Trypanosoma cruzi [2]) [µM] | IC50 (Trypanosoma cruzi [3]) [µM] | SMILES | IC50 ([1]; IC50) [µM] | IC50 [1] [µM]
0.45 | 0.18 | Clc1ccc(C(c2cccnc2)N2CCCCC2)cc1 (centres undefined) | > 100 | –
10 | 1.15 | CC(C)CC(O)(c1ccc(Cl)cc1)c1cncnc1 (centres undefined) | > 100 | –
> 1 | > 1 | CN1CCN(C(c2ccc(Cl)cc2)c2cccnc2)CC1 (centres undefined) | > 100 | –
> 10 | > 10 | CON=C(Cc1ccccc1)c1ccc(Cl)cc1 | 70.2 | –
66 | 22.9 | OC(c1ccc(Cl)cc1)(c1ncccn1)c1ccccc1Cl (centres undefined) | > 100 | –
> 1 | > 1 | CON=C(Cc1ccccc1C)c1cccnc1 | > 100 | –
0.505 | 0.201 | OC(c1ccc(Cl)cc1)(c1cccnc1)c1nccs1 (centres undefined) | > 100 | –
1 | 0.17 | FC(c1ccc(Cl)cc1)(c1cccnc1)c1ccccc1Cl (centres undefined) | 59.7 | –
0.38 | 0.075 | CCCC=C(c1ccc(Cl)cc1)c1cccnc1 | 79.4 | –
5.23 | 0.329 | Cc1cccc(C(O)(c2ccc(Cl)cc2)c2cncnc2)c1 (centres undefined) | 68.4 | –
0.15 | 0.062 | N#Cc1ccccc1C(O)(c1ccc(Cl)cc1)c1cccnc1 (centres undefined) | > 100 | –
> 1 | > 1 | CCN1CCN(C(c2ccc(Cl)cc2)c2cccnc2)CC1 (centres undefined) | > 100 | –
76 | 0.07 | OC(c1ccc(Cl)cc1)(c1cncnc1)c1cccs1 (centres undefined) | > 100 | –
3 | 0.33 | CCCCC(O)(c1ccc(Cl)cc1)c1cnccn1 (centres undefined) | > 100 | –
> 1 | > 1 | CCCCc1ccc(C(O)(c2ccc(Cl)cc2)c2ccc(Cl)cc2)cn1 | 54.7 | –
0.154 | 0.078 | OC(c1ccc(Cl)cc1)(c1cccnc1)c1ccsc1 (centres undefined) | > 100 | –
10 | > 10 | O=C(c1ccc(Cl)cc1)c1ccccc1Cl | > 100 | –
15.5 | 7.33 | OC(c1cncnc1)(c1ccccn1)c1ccccc1Cl (centres undefined) | > 100 | –

IC90 (Trypanosoma cruzi [2]) [µM] | IC50 (Trypanosoma cruzi [3]) [µM] | SMILES | IC50 ([1]; IC50) [µM] | IC50 [1] [µM]
10 | > 10 | CON=C(c1ccc(Cl)cc1)c1ccc(Cl)cc1 | > 100 | –
7.49 | 2.84 | OC(c1ccc(Cl)cc1)(c1ccc(C(F)(F)F)cc1)c1ccc2ncccc2c1 (centres undefined) | 56.3 | –
9.37 | 2.64 | OC(c1cncnc1)(c1ccccc1F)c1ccccc1Cl (centres undefined) | > 100 | –
59 | 1.53 | OC(c1ccc(Cl)cc1)(c1cccnc1)c1cncnc1 (centres undefined) | > 100 | –
> 10 | > 10 | Nc1nccnc1C(O)(c1ccc(Cl)cc1)c1ccc(Cl)cc1 | 63.4 | –
0.368 | 0.154 | OC(CC1CCCCC1)(c1ccc(Cl)cc1)c1cncnc1 (centres undefined) | 64.7 | –
0.09 | 0.02 | Cc1ccsc1C(O)(c1ccc(Cl)cc1)c1cccnc1 (centres undefined) | 74.2 | –
0.875 | 0.509 | OC(c1cccnc1)(c1ccsc1)c1ccccc1Cl (centres undefined) | > 100 | –
93 | 46.4 | O/N=C(\c1ccc(Cl)cc1)c1ccccc1Cl | 54.9 | –
0.84 | 0.56 | OC(c1ccc(Cl)cc1)(c1ccc(Cl)cc1)c1cccc(F)c1 | 53.2 | –
0.103 | 0.029 | CCCCC(O)(c1ccc(Cl)cc1)c1cccnc1 (centres undefined) | 60.9 | –
0.072 | 0.028 | OC(c1ccc(Cl)cc1)(c1cccnc1)c1sccc1Cl (centres undefined) | 70.1 | –
6.23 | 0.654 | Clc1ccc(C(NCCN2CCOCC2)(c2cccnc2)c2ccccc2Cl)cc1 (centres undefined) | 56.5 | –
7.9 | 0.44 | OC(c1ccc(Cl)cc1)(c1cnccn1)c1ccccc1Cl (centres undefined) | > 100 | –
1.9 | 0.84 | OC(c1ccc(Cl)cc1)(c1cncnc1)c1cccc(F)c1 (centres undefined) | > 100 | –
10 | 0.513 | OC(c1ccc(Cl)cc1)(c1cncnc1)c1cccc(Cl)c1 (centres undefined) | 57.2 | –
21 | 2.24 | CC(C)C(O)(c1ccc(Cl)cc1)c1cncnc1 (centres undefined) | > 100 | –
